{"source": "paper PMC9837764", "about": "(Nature Communications, 2023)", "key": {"[1]": {"test": "MB-905 and metabolites in rat lung", "format": "in vivo, Sprague-Dawley rats (Rattus norvegicus)", "details": "30 mg/kg oral", "method": "Noncompartmental data analysis was performed using Phoenix WinNonlin®.\n(§1) Pharmacokinetics in rodent plasma was performed in CD1 mice (Mus musculus, 20–30 g) and Sprague‒Dawley rats (Rattus norvegicus, 250–300 g) of both sexes. […] After oral or intravenous administration, blood samples were collected at times of 0.25, 0.5, 1, 2, 4, 8, and 24 and 0.083, 0.25, 0.5, 1, 2, and 4 h. Parameters such as area under the curve (AUC), time taken to reach the maximum concentration (Tmax), time taken for Cmax to drop in half (T 1/2), volume of distribution, clearance, elimination constant and bioavailability (F) were evaluated. Bioavailability was calculated using the following equation: F (%) = [(intravenous dose x oral AUC)/(oral dose × intravenous AUC)] × 100. […] Animals were treated orally with MB-905 as previously described. Animals were sacrificed at different time points after treatments, and lungs were immediately removed, placed in liquid nitrogen at −80 °C and processed for further analysis. For the analysis of plasma and lung supernatant, UPLC–MS/MS equipment was used.\nSupplementary Fig. 6. Pharmacokinetic and putative metabolites of MB-905 in rats. a, […]\nplasma (n = 6); b, Single oral dose (30 mg/kg bodyweight) pharmacokinetics properties of MB- […]\nmg/kg, p.o.) (n=5) d, Single oral dose (30 mg/kg bodyweight) pharmacokinetics properties of […]\n(30 mg/kg, p.o.) (n=3) f, Single oral dose (30 mg/kg bodyweight) pharmacokinetics properties of […]"}, "[2]": {"system": "Salmonella typhimurium TA 97a", "test": "Ames test, strain TA 97a"}, "SARS-CoV-2 gamma VoC": {"system": "SARS-CoV-2 gamma VoC", "design": "species or system K18-hACE2 mice (Mus musculus)", "details": "mouse, in vivo"}, "[3]": {"test": "MB-905 and metabolites in mouse lungs after single oral treatment", "format": "in vivo, mice", "details": "individual animals", "method": "Fig. 5 Pharmacokinetic and pharmacodynamics in mice. […] Lung metabolites were detected consistently in terms of peak area and duration (c). Transgenic mice expressing the hACE2 receptor to SARS-CoV-2 entry at the age of 10–12 weeks were infected with 10^5 PFU intranasally and treated orally beginning 12–18 h after infection with 140 mg/kg/day. […] (e) are presented.\nas §1"}, "[4]": {"system": "Salmonella typhimurium TA 100"}}, "note": "Several values for one entry are separate records, joined by “and”; a condition that tells them apart may be missing. Identical values can stand only once."}
{"smiles": "c1coc(CNc2ncnc3[nH]cnc23)c1", "note": "[MB-905, N6-furfurylaminopurine]", "values": [{"measurement": "MB-905 in rat lung (Fig4C source data, per animal)", "setting": "[1]; 1 h", "result": "231.05 and 263.97 and 218.08"}, {"measurement": "MB-905 in rat lung (Fig4C source data, per animal)", "setting": "[1]; 2 h", "result": "360.89 and 345.91 and 313.18"}, {"measurement": "MB-905 in rat lung (Fig4C source data, per animal)", "setting": "[1]; 4 h", "result": "100.91 and 155.47 and 69.56"}, {"measurement": "MB-905 in rat lung (Fig4C source data, per animal)", "setting": "[1]; 8 h", "result": "7.77 and 46.28 and 12.38"}, {"measurement": "MB-905 in rat lung (Fig4C source data, per animal)", "setting": "[1]; 12 h", "result": 0}, {"measurement": "Mutagenicity TA 97a +S9", "setting": "[2]; 8 µg/mL", "result": "-"}, {"measurement": "Mutagenicity TA 97a -S9", "setting": "[2]; 8 µg/mL", "result": "-"}, {"measurement": "Mutagenicity TA 97a +S9", "setting": "[2]; 40 µg/mL", "result": "-"}, {"measurement": "Mutagenicity TA 97a -S9", "setting": "[2]; 40 µg/mL", "result": "-"}, {"measurement": "Mutagenicity TA 97a +S9", "setting": "[2]; 200 µg/mL", "result": "-"}, {"measurement": "Mutagenicity TA 97a -S9", "setting": "[2]; 200 µg/mL", "result": "-"}, {"measurement": "Mutagenicity TA 97a +S9", "setting": "[2]; 1,000 µg/mL", "result": "-"}, {"measurement": "Mutagenicity TA 97a -S9", "setting": "[2]; 1,000 µg/mL", "result": "-"}, {"measurement": "Mutagenicity TA 97a +S9", "setting": "[2]; 5,000 µg/mL", "result": "-"}, {"measurement": "Mutagenicity TA 97a -S9", "setting": "[2]; 5,000 µg/mL", "result": "-"}, {"measurement": "Ames test", "setting": "[2]; all strains of Supplementary Table 3", "result": "negative"}, {"measurement": "SARS-CoV-2-induced inflammation in the BAL fluid", "setting": "SARS-CoV-2 gamma VoC", "result": "attenuated"}, {"measurement": "MB-905 level (Fig5B)", "setting": "[3]; 140 mg/kg, 0.25 h", "result": "1864 and 2462 and 2409"}, {"measurement": "MB-905 level (Fig5B)", "setting": "[3]; 140 mg/kg, 1 h", "result": "2448 and 1951"}, {"measurement": "MB-905 level (Fig5B)", "setting": "[3]; 140 mg/kg, 3 h", "result": "1209 and 771 and 2655"}, {"measurement": "MB-905 level (Fig5B)", "setting": "[3]; 140 mg/kg, 8 h", "result": "1105 and 110 and 400"}, {"measurement": "MB-905 level (Fig5B)", "setting": "[3]; 140 mg/kg, 12 h", "result": 0}, {"measurement": "MB-905 level (Fig5B)", "setting": "[3]; 500 mg/kg, 0.25 h", "result": "5246 and 5640 and 6065"}, {"measurement": "MB-905 level (Fig5B)", "setting": "[3]; 500 mg/kg, 1 h", "result": "4146 and 4252 and 4427"}, {"measurement": "MB-905 level (Fig5B)", "setting": "[3]; 500 mg/kg, 3 h", "result": "3576 and 2579 and 2846"}, {"measurement": "MB-905 level (Fig5B)", "setting": "[3]; 500 mg/kg, 8 h", "result": "3077 and 895 and 2729"}, {"measurement": "MB-905 level (Fig5B)", "setting": "[3]; 500 mg/kg, 12 h", "result": "575 and 53 and 0"}, {"measurement": "Cytotoxicity and mutagenicity, preliminary assay TA 100", "setting": "[4]", "result": "not observed"}]}
